Experimental data as given in patent US20150174059A1, “ORAL CARE” (University of Pretoria, priority 2012, published 2015).
Structures can show the parent of a compound that is named as a salt. Where two headings read alike, the source gives them in different places. Marks after values point to notes of the source that are not given here. Numbered stars: 1 amine (or outer) side, 2 acyl side, 3 side chain; on linkers, the order of the positions; unused ones are H or OH. Bridge positions count the residues as written; N and C are the ends. Square brackets hold non-standard residues; d marks the D form. Peptide text beside a SMILES is read from it. I, II: the chains in the order shown. Actinocin(9to1) = Cc1c2oc3c(C)ccc(C(=O)[*:1])c3nc-2c(C(=O)[*:2])c(N)c1=O; NMeV = CN[C@H](C(=O)O)C(C)C; Sar = CNCC(=O)O

Key:
[1] = system: Actinomyces israelii (ATCC 10049); test: Microdilution MIC/MBC against Actinomyces israelii; assay type: cell-based; details: for MBC / MIC: ATCC10049
Procedure: (§1) The microorganisms used in this study included Actinomyces israelii (ATCC 10049), Prevotella intermedia (ATCC 25611), Streptococcus mutans (ATCC 25175), Candia albicans (ATCC 10231) and a strain of Candida albicans resistant to polyenes and azoles (1051604). The bacteria were grown on Casein-peptone Soymeal-peptone Agar medium (CASO) (Merck Chemicals (Pty) Ltd Wadeville, South Africa) under anaerobic conditions in an anaerobic jar with Anaerocult® A (Merck KGaA Darmstadt, Germany), at 37° C. for 72 hours. Actinomyces israelii and S. mutans had CASO agar enriched with 1% sucrose (Merck Chemicals (Pty) Ltd Wadeville, South Africa). The drug susceptible and drug resistant strains of C. albicans were grown on Sabouraud Dextrose 4% Agar (SDA) (Merck Chemicals (Pty) Ltd Wadeville, South Africa), at 37° C. for 72 hours. Sub-culturing was done every second week. Inocula were prepared by suspending bacterial test organisms in their respective broths until turbidity was compatible with McFarland Standard 1 (Merck Chemicals (Pty) Ltd Wadeville, South Africa). Yeast test organisms were suspended in sterile distilled water until turbidity was compatible with McFarland Standard 1 (McFarland, 1907).
(§2) The microdilution technique using 96-well micro-plates, as described by Eloff (1998) was used to obtain the MIC and MBC values of the crude extracts against the microorganisms under study. The extracts, dissolved in 10% dimethyl sulphoxide (DMSO) (Merck Chemicals (Pty) Ltd), were serially diluted in broth (enriched for A. israelii and S. mutans) for the bacteria and sterile water for the Candida species; in the 96-well plate adding 48 hour old microorganisms grown at 37° C. The final concentration of extracts ranged from 12.5-0.10 mg/ml and the positive control, 5% chlorhexidine gluconate (CHX) (Dental Warehouse, Sandton, South Africa), ranged from 12.5-3.8×10^−4 mg/ml. Amphotericin B (Davis Diagnostics, Gauteng) an established antifungal drug, ranging from 0.2 mg/ml to 1.5×10^−3 mg/ml, was included for the Candida assays. […] Actinomyces israelii and S. mutans were incubated at 37° C., under anaerobic conditions, for 24 hours; P. intermedia was incubated at 37° C., under anaerobic conditions, for 48 hours; and C. albicans was incubated at 37° C. with p-iodonitrotetrazolium violet (INT) (Sigma-Aldrich, South Africa) already added, under moist aerobic conditions, for 24 hours.
To indicate bacterial growth, 50 μl of (0.2 mg/ml) INT, was added to micro-plate wells and incubated at 37° C., under anaerobic conditions, for 20-60 minutes until a red colour developed. The MIC was defined as the lowest concentration that inhibited the colour change of INT. […] These suspensions were reincubated at 37° C. for 28 hours (48 hours for P. intermedia), under anaerobic conditions. The MBC was determined as the lowest concentration of extract which inhibited 100% growth of microorganisms (Cohen et al., 1998).

HEp-2 cells = test: Cytotoxicity, XTT method, HEp-2 cells; assay type: cell-based; details: for CC50: Homo sapiens, 72 h, read-out: 50% inhibition of cell growth IC50 + S.D.
Procedure: (§3) Microtitre plates with Vero and HEp-2 cells (Highveld Biological, Gauteng) were used for testing the four best ethanol extracts for cytotoxicity following the method of Basson (2005). Cytotoxicity was measured by the XTT (Sodium 3′-[1-(phenyl amino-carbonyl)-3,4-tetrazolim]-bis-[4 methoxy-6-nitro]benzene sulfonic acid hydrate) method using the cell proliferation kit II (Roche Diagnostics GmbH). A hundred microliters of Vero and HEp-2 cells (1×10^5 ml) were seeded onto micro-plates and incubated for 24 hrs to allow the cells to attach to the bottom of the plate. Dilution series were made of the extracts and the various concentrations (400-3.1 μg/ml) were added to the micro-plate and incubated for 72 hours. The XTT reagents were added to a final concentration of 0.3 mg/ml and the cells were incubated for one to two hours. The positive drug controls Doxorubicin HCl (Sigma-Aldrich, South Africa) and Actinomycin D (Sigma-Aldrich, South Africa), at concentration ranges of 0.78-0.01 μg/ml, were included in the assay. After incubation the absorbance of the colour was spectrophotometrically quantified using an enzyme-linked immunosorbent assay (ELISA) plate reader (BIO-TEK Power-Wave XS, Weltevreden Park, South Africa), which measured the optical density at 490 nm with a reference wavelength of 690 nm. The assay was carried out in triplicate.

Cladosprium cucumerinum = details: Aurentiacin A isolated from Myrica serrate; cited from earlier work
Bacillus subtilis = details: Aurentiacin A isolated from Myrica serrate; cited from earlier work
E. coli = details: Aurentiacin A isolated from Myrica serrate; cited from earlier work
[2] = system: Streptococcus mutans (ATCC 25175); test: Microdilution MIC/MBC against Streptococcus mutans; assay type: cell-based; details: ATCC25175, Gram +ve
Procedure: as §1
(§4) The microdilution technique using 96-well micro-plates, as described by Eloff (1998) was used to obtain the MIC and MBC values of the crude extracts against the microorganisms under study. […]

[3] = system: Prevotella intermedia (ATCC 25611); test: Microdilution MIC/MBC against Prevotella intermedia; assay type: cell-based; details: ATCC25611, Gram -ve
Procedure: as §1, §4

[4] = system: Candida albicans (ATCC 10231); test: Microdilution MIC/MBC against Candida albicans; assay type: cell-based
Procedure: as §1
The microdilution technique using 96-well micro-plates, as described by Eloff (1998) was used to obtain the MIC and MBC values of the crude extracts against the microorganisms under study. The extracts, dissolved in 10% dimethyl sulphoxide (DMSO) (Merck Chemicals (Pty) Ltd), were serially diluted in broth (enriched for A. israelii and S. mutans) for the bacteria and sterile water for the Candida species; in the 96-well plate adding 48 hour old microorganisms grown at 37° C. The final concentration of extracts ranged from 12.5-0.10 mg/ml and the positive control, 5% chlorhexidine gluconate (CHX) (Dental Warehouse, Sandton, South Africa), ranged from 12.5-3.8×10^−4 mg/ml. Amphotericin B (Davis Diagnostics, Gauteng) an established antifungal drug, ranging from 0.2 mg/ml to 1.5×10^−3 mg/ml, was included for the Candida assays. […]

[5] = system: Candida albicans resistant to polyenes and azoles (1051604); test: Microdilution MIC/MBC against polyene and azole resistant C. albicans; assay type: cell-based; details: Yeast
Procedure: as §1, §2
To indicate bacterial growth, 50 μl of (0.2 mg/ml) INT, was added to micro-plate wells and incubated at 37° C., under anaerobic conditions, for 20-60 minutes until a red colour developed. The MIC was defined as the lowest concentration that inhibited the colour change of INT. […] These suspensions were reincubated at 37° C. for 28 hours (48 hours for P. intermedia), under anaerobic conditions. […]

DPPH antioxidant assay = assay type: biochemical; details: single component
Procedure: DPPH (2,2-diphenyl-1-picrylhydrazyl hydrate) is a stable free radical with an unpaired valence electron at a nitrogen atom forming a bridge. The free radical can initiate a chain reaction which causes the removal of an electron from another molecule to complete its own orbital. This free valence electron forms the basis of the DPPH assay as samples are tested to determine the scavenging capability of this DPPH radical.
A modified antioxidant assay was used (du Toit et al., 2001). A 2% stock solution of M. piperita and M. alternifolia, a 2 mg/ml stock solution of ascorbic acid (vitamin C) (Sigma-Aldrich (Pty) Ltd, Aston Manor, South Africa) and H. natalensis, a 1 mg/ml stock solution of Quercetin, a 500 μg/ml stock solution of TEAVIGO™ and a synergistic compilation of H. natalensis (3.125 mg/ml), M. alternifolia (0.05% v/v), M. piperita (0.05% v/v) and TEAVIGO™ (2.5 mg/ml) were prepared.
In a 96 well ELISA plate, 20 μl of each sample was added to 200 μl dH2O (except for Quercetin which was added to 200 μl EtOH), serial dilutions were done. After which […] DPPH (Sigma-Aldrich (Pty) Ltd, Aston Manor, South Africa) dissolved in ethanol (40 μg/ml) were added to all wells. All samples were prepared in triplicate. […] The absorbance was measured in an ELISA plate reader at 515 nm (du Toit et al., 2001). […]

in vitro = assay type: cell-based; details: African green monkey
Procedure: as §3

[6] = against Actinomyces israelii, NA = Not active, read-out: MBC of the isolated compounds
[7] = against Actinomyces israelii, read-out: MIC of the isolated compounds

Compound: Cardamomin [Cardamomin (2)]
- MIC of the isolated compounds ([1]; against Actinomyces israelii): >1000 µg/mL
- 50% inhibition of cell growth IC50 + S.D. (HEp-2 cells): 52.12 ± 9.41 µg/mL

Compound: COc1c(C)c(O)cc(O)c1C(=O)/C=C/c1ccccc1 [Aurentiacin A (1), 2′-Me ether derivative of 2′,4′,6′-trihydroxy-3′-methylchalcone]
- MBC [1, 6]: 62.5 µg/mL
- MIC [1, 7]: 62.5 µg/mL
- CC50 (HEp-2 cells): 6.36 ± 5.09 µg/mL
- growth inhibition (Cladosprium cucumerinum): inhibits the growth
- growth inhibition (Bacillus subtilis): inhibits the growth
- growth inhibition (E. coli): inhibits the growth

Compound: [H]/N=C(\N/C(=N/[H])NCCCCCCNC(=N)NC(=N)Nc1ccc(Cl)cc1)Nc1ccc(Cl)cc1 [Chlorhexidine, chlorhexidine gluconate]
- MBC ([1]; Gram +ve, Actinomyces israelii, read-out: MBC, A.i): 39 µg/mL
- MIC ([1]; Gram +ve, Actinomyces israelii, read-out: MIC, A.i): 33 µg/mL
- MBC [1, 6]: 24 µg/mL
- MIC [1, 7]: 24 µg/mL
- MBC ([1]; Actinomyces israelii, fractions of the ethanolic extract, against A. israelii, Na = Not active, read-out: Average minimum bactericidal concentration (MBC) of the fractions): 48.8 µg/mL
- MIC ([1]; Actinomyces israelii, fractions of the ethanolic extract, against A. israelii, read-out: Average minimum inhibitory concentration (MIC) of the fractions): 18.3 µg/mL
- MBC [2]: 415 µg/mL
- MIC [2]: 61 µg/mL
- MBC [3]: 1040 µg/mL
- MIC [3]: 260 µg/mL
- MBC ([4]; ATCC10231, Yeast): 293 µg/mL
- MIC ([4]; ATCC10231, Yeast): 352 µg/mL
- MBC ([5]; Candida albicans): 293 µg/mL
- MIC ([5]; Candida albicans): 260 µg/mL

Compound: Oc1cc(O)c2c(c1)OC(c1ccccc1)C(O)C2 (stereo not drawn) [3,5,7-trihydroxyflavan (5), 3,5,7-Trihydroxyflavan]
- MIC [1, 7]: > 1000 µg/mL
- MIC of the isolated compounds ([1]; against Actinomyces israelii): >1000 µg/mL
- CC50 (HEp-2 cells): > 200 µg/mL

Compound: Cc1c2oc3c(C)ccc(C(=O)N[C@@H]4C(=O)N[C@H](C(C)C)C(=O)N5CCC[C@H]5C(=O)N(C)CC(=O)N(C)[C@@H](C(C)C)C(=O)O[C@@H]4C)c3nc-2c(C(=O)N[C@@H]2C(=O)N[C@H](C(C)C)C(=O)N3CCC[C@H]3C(=O)N(C)CC(=O)N(C)[C@@H](C(C)C)C(=O)O[C@@H]2C)c(N)c1=O [Actinomycin D] (I: T[dV]P[Sar][NMeV] / II: T[dV]P[Sar][NMeV]; ester I:1-I:C, II:1-II:C; linker I:N-II:N via Actinocin(9to1))
- 50% inhibition of cell growth IC50 + S.D. (HEp-2 cells): 9.6 × 10^−3 ± 0.0003^c μg/ml
- Cytotoxicity IC50, HEp-2 (HEp-2 cells; XTT, 72 hours): 0.0085 µg/mL

Compound: C[C@@H]1[C@H](O)[C@@H](C)/C=C/C=C/C=C/C=C/C=C/C=C/C=C/[C@H](O[C@@H]2O[C@H](C)[C@@H](O)[C@H](N)[C@@H]2O)C[C@@H]2O[C@](O)(C[C@@H](O)C[C@@H](O)[C@H](O)CC[C@@H](O)C[C@@H](O)CC(=O)O[C@H]1C)C[C@H](O)[C@H]2C(=O)O [Amphotericin B]
- MIC, C.a ([4]; Yeast): >0.2^c mg/ml
- MBC, C.a (res) [5]: 0.013^c mg/ml
- MIC, C.a (res) [5]: 0.013^c mg/ml

Compound: O=C1O[C@H]([C@@H](O)CO)C(O)=C1O [Vitamin C, ascorbic acid]
- IC50 ± SD, 50% of DPPH that is inhibited (DPPH antioxidant assay): 1.98 ± 0.006 µg/mL

Compound: COc1cccc2c1C(=O)c1c(O)c3c(c(O)c1C2=O)C[C@@](O)(C(=O)CO)C[C@@H]3O[C@H]1C[C@H](N)[C@H](O)[C@H](C)O1 [Doxorubicin, Doxorubicin HCl]
- IC50 at 72 h (in vitro): 0.06 µg/mL

Compound: O=c1c(O)c(-c2ccc(O)c(O)c2)oc2cc(O)cc(O)c12 [Quercetin (4), 3,3′,4′,5,7-pentahydroxyflavone]
- MBC [1, 6]: 1000 µg/mL
- MIC [1, 7]: 1000 µg/mL
- CC50 (HEp-2 cells): 187 ± 42.6 µg/mL
- IC50 ± SD, 50% of DPPH that is inhibited (DPPH antioxidant assay): 0.415 ± 0.01095 µg/mL
